In ChEMBL document CHEMBL5038569, “Targeting RECQL5 Functions, by a Small Molecule, Selectively Kills Breast Cancer in Vitro and in Vivo” (J Med Chem, 2021) one finds Activity and inhibition data, which are given here for eight compounds.

For assay [1], the system named is MCF7. In words: Cytotoxicity against RECQL5 knock out human MCF7 cells assessed as cell growth inhibition measured after 72 hrs by MTT assay. It counts as functional. Conditions: dose 6-50 µM. (In general: Tetrazolium dyes change colour on reduction, which living cells bring about.)
Assay [2] deals with MCF7. In words: Cytotoxicity against human MCF7 cells expressing wild type RECQL5 assessed as cell growth inhibition measured after 72 hrs by MTT assay. Format: functional. Conditions: dose 6-50 µM.
The species entered for a further assay is Homo sapiens. In words: Inhibition of full length His-tagged human RECQL5 expressed in Escherichia coli incubated for 15 mins by fluorescence based assay.

Active and inactive are the calls of the source. The calls are words filed in the database; no cut-off is given here.

`Cc1ccc(NC(=O)N[C@@H](c2ccccc2)c2nnc(SCc3ccccc3)o2)cc1`: the Activity entry with MCF7 [1] and in the assay on MCF7 [2] was “Dose-Dependent Effect” throughout.

As to `O=C(Nc1cc(C(F)(F)F)cc(C(F)(F)F)c1)N[C@@H](Cc1ccccc1)c1nnc(SCc2ccccc2)o1`, the Activity entry with MCF7 [1] and in the assay with MCF7 [2] was “Dose-Dependent Effect” throughout. Also, the inhibition result in the assay filed under Homo sapiens is “inactive”.

On to `COc1ccc(NC(=O)N[C@@H](c2ccccc2)c2nnc(SCc3ccccc3)o2)cc1`, for which the result in the assay with MCF7 [1] and with MCF7 [2] was inactive.

Take `Cc1ccc(NC(=O)N[C@@H](Cc2ccccc2)c2nnc(SCc3ccccc3)o2)cc1`: the Activity entry in the assay on MCF7 [1] and in the assay with MCF7 [2] was “Dose-Dependent Effect” throughout.

As for `O=C(NCc1nnc(SCc2ccccc2)o1)Nc1cc(C(F)(F)F)cc(C(F)(F)F)c1`, the Activity entry with MCF7 [1] and in the assay on MCF7 [2] was “Dose-Dependent Effect” throughout.

Turning to `O=C(Nc1ccc([N+](=O)[O-])cc1)N[C@@H](c1ccccc1)c1nnc(SCc2ccccc2)o1`, the Activity entry in the assay on MCF7 [1] and in the assay with MCF7 [2] was “Dose-Dependent Effect” each time.

For the compound `COc1ccc(NC(=O)N[C@@H](Cc2ccccc2)c2nnc(SCc3ccccc3)o2)cc1`, the Activity entry in the assay on MCF7 [1] and in the assay on MCF7 [2] was “Dose-Dependent Effect” each time.

`O=C(Nc1ccc([N+](=O)[O-])cc1)N[C@@H](Cc1ccccc1)c1nnc(SCc2ccccc2)o1`: the Activity entry in the assay on MCF7 [1] and in the assay with MCF7 [2] was “Dose-Dependent Effect” in each case.
